Assay results taken from the NIST ThermoML archive (doi:10.1021/je200766t).
Numbers after ± are expanded uncertainties.

Settings: Liquid, Closed cell (Static) method

OCC(O)CO [glycerol]
Settings	vapor or sublimation pressure [kPa]
351.8 K	0.00583 ± 0.00043
362.02 K	0.0129 ± 0.0009
372.06 K	0.0258 ± 0.0017
382.08 K	0.0544 ± 0.0034
392.18 K	0.102 ± 0.006
402.16 K	0.18 ± 0.011
412.24 K	0.315 ± 0.019
422.28 K	0.534 ± 0.032
432.45 K	0.981 ± 0.021
452.64 K	2.747 ± 0.02
462.86 K	4.099 ± 0.029

OCCCO [propan-1,3-diol]
Settings	vapor or sublimation pressure [kPa]
313.2 K	0.0111 ± 0.0008
323.26 K	0.026 ± 0.0017
333.23 K	0.0574 ± 0.0036
343.16 K	0.12 ± 0.007
351.33 K	0.221 ± 0.014
361.61 K	0.43 ± 0.026
362.97 K	0.462 ± 0.028
371.65 K	0.785 ± 0.017
381.7 K	1.395 ± 0.03
391.7 K	2.376 ± 0.049
391.73 K	2.374 ± 0.049
401.64 K	3.883 ± 0.079
411.71 K	6.212 ± 0.13
421.69 K	9.628 ± 0.2
431.74 K	14.62 ± 0.096
441.73 K	21.63 ± 0.14
451.78 K	31.44 ± 0.2
461.85 K	44.81 ± 0.29
